Laboratory results from the supplement of paper PMC10307832.

Legend:
Assay in all cases: relative viability (nuclei count vs DMSO), 5 days (fraction); higher = more cells survive
[1] = compound: O=C(O)c1ccc2c(c1)nc(Nc1cccc(Cl)c1)c1ccncc12 [Silmitasertib] + Nc1nc2[nH]cc(CCc3ccc(C(=O)N[C@@H](CCC(=O)O)C(=O)O)cc3)c2c(=O)[nH]1 [Pemetrexed] (partner 0.2 µM)
Method in brief: (§1)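 Relative viability is defined as nuclei in treated wells over nuclei in vehicle wells. Duplicate plates were run and medians reported. Lung cancer cell lines in 1536-well plates were dosed by pin tool one day after seeding, with one drug or with a fixed anchor-drug dose plus five library-drug doses (not always all listed) in √10 steps, and nuclei were counted after 5 days.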

[2] = compound: O=C(O)c1ccc2c(c1)nc(Nc1cccc(Cl)c1)c1ccncc12 [Silmitasertib] + CC(=O)c1c(C)c2cnc(Nc3ccc(N4CCNCC4)cn3)nc2n(C2CCCC2)c1=O [Palbociclib] (partner 0.5 µM)
Method in brief: as §1

[3] = compound: O=C(O)c1ccc2c(c1)nc(Nc1cccc(Cl)c1)c1ccncc12 [Silmitasertib] + CS(=O)(=O)CCNCc1ccc(-c2ccc3ncnc(Nc4ccc(OCc5cccc(F)c5)c(Cl)c4)c3c2)o1 [Lapatinib] (partner 2 µM)
Method in brief: as §1

[4] = compound: O=C(O)c1ccc2c(c1)nc(Nc1cccc(Cl)c1)c1ccncc12 [Silmitasertib] + CS(=O)(=O)N1CCN(Cc2cc3nc(-c4cccc5[nH]ncc45)nc(N4CCOCC4)c3s2)CC1 [Pictilisib] (partner 1 µM)
Method in brief: as §1

[5] = compound: O=C(O)c1ccc2c(c1)nc(Nc1cccc(Cl)c1)c1ccncc12 [Silmitasertib] + CC(C)C[C@H](NC(=O)[C@H](Cc1ccccc1)NC(=O)c1cnccn1)B(O)O [Bortezomib] (partner 0.002 µM)
Method in brief: as §1

Cell Line | relative viability ([1]; first compound 0.04 µM) | relative viability ([1]; first compound 0.4 µM) | relative viability ([1]; first compound 1.265 µM) | relative viability ([1]; first compound 4 µM) | relative viability ([2]; first compound 0.04 µM) | relative viability ([2]; first compound 0.4 µM) | relative viability ([2]; first compound 1.265 µM) | relative viability ([2]; first compound 4 µM) | relative viability ([3]; first compound 0.04 µM) | relative viability ([3]; first compound 0.4 µM) | relative viability ([3]; first compound 1.265 µM) | relative viability ([3]; first compound 4 µM) | relative viability ([4]; first compound 0.04 µM) | relative viability ([4]; first compound 0.4 µM) | relative viability ([4]; first compound 1.265 µM) | relative viability ([4]; first compound 4 µM) | relative viability ([5]; first compound 0.04 µM) | relative viability ([5]; first compound 0.4 µM) | relative viability ([5]; first compound 1.265 µM) | relative viability ([5]; first compound 4 µM)
NCI-H1792 | 0.772 | 0.78 | 0.78 | 0.331 | 0.674 | 0.574 | 0.708 | 0.698 | 0.886 | 0.711 | 0.874 | 0.608 | 0.28 | 0.294 | 0.283 | 0.286 | 0.943 | 0.68 | 0.53 | 0.864
NCI-H1915 | 0.503 |  | 0.429 | 0.302 | 0.58 |  | 0.517 | 0.297 | 0.994 |  | 1.02 | 0.397 | 1.02 |  | 0.956 | 0.408 | 1.01 |  | 1.02 | 0.424
NCI-H1975 | 0.294 |  | 0.287 | 0.219 | 0.645 |  | 0.192 | 0.499 | 0.901 | 0.731 | 0.719 | 0.739 | 0.313 | 0.25 | 0.207 | 0.208 | 0.349 | 0.283 | 0.423 | 0.331
NCI-H1993 | 0.616 | 0.524 | 0.598 | 0.505 | 0.57 | 0.576 | 0.525 | 0.44 | 0.815 | 0.753 | 0.887 | 0.803 | 0.818 | 0.818 | 0.854 | 0.916 | 1.33 | 0.857 | 0.995 | 0.745
NCI-H2009 | 1.09 | 0.98 | 1.13 | 0.908 | 0.234 | 0.199 | 0.193 | 0.203 | 1.04 | 0.636 | 0.85 | 0.341 | 1.07 | 0.701 | 0.427 | 0.244 | 1.14 | 0.545 | 0.944 | 0.463
NCI-H2023 | 0.278 | 0.187 | 0.266 | 0.21 | 0.336 | 0.458 | 0.337 | 0.354 | 1.05 | 0.373 | 0.767 | 0.159 | 0.275 | 0.275 | 0.194 | 0.179 | 1.13 | 0.557 | 0.946 | 0.282
NCI-H2085 | 1.02 | 0.647 | 0.833 | 0.867 | 0.461 | 0.446 | 0.473 | 0.439 | 0.916 | 0.509 | 0.674 | 0.507 | 0.474 | 0.547 | 0.453 | 0.457 | 1.19 | 0.614 | 0.873 | 0.889
NCI-H2087 | 0.604 | 0.64 | 0.665 | 0.542 | 0.217 | 0.224 | 0.18 | 0.139 | 0.924 | 0.753 | 0.727 | 0.377 | 0.997 | 0.513 | 0.577 | 0.347 | 0.737 | 0.656 | 0.657 | 0.421
NCI-H2126 | 0.734 | 0.623 | 0.672 | 0.491 | 0.357 | 0.353 | 0.356 | 0.349 | 0.803 | 0.759 | 0.691 | 0.544 | 0.512 | 0.508 | 0.45 | 0.454 | 1.08 | 0.98 | 1.08 | 1.05
NCI-H2228 | 0.331 | 0.337 | 0.333 | 0.307 | 1.02 | 0.313 | 0.467 | 0.701 | 1.16 | 0.944 | 1.03 | 1 | 0.505 | 0.312 | 0.367 | 0.305 | 1.46 | 0.92 | 0.912 | 1.13
NCI-H2347 | 0.44 |  | 0.363 | 0.42 | 0.43 | 0.418 | 0.38 | 0.394 | 0.944 | 0.77 | 0.759 | 0.508 | 0.739 | 0.829 | 0.665 | 0.82 | 1.27 | 0.593 | 0.881 | 0.652
NCI-H2405 | 1.12 | 1 | 0.73 | 0.86 | 0.574 | 0.501 | 0.425 | 0.536 | 1.51 | 0.903 | 0.844 | 0.562 | 0.586 | 0.388 | 0.379 | 0.28 | 0.936 | 0.792 | 0.874 | 0.904
NCI-H3122 | 0.203 | 0.189 | 0.185 | 0.194 | 0.219 | 0.17 | 0.172 | 0.155 | 1.07 | 0.975 | 1.07 | 1.08 | 0.694 | 0.53 | 0.634 | 0.644 | 1.11 | 0.935 | 1.03 | 1.12
PC-3 [JPC-3] | 1.18 | 0.919 | 1.15 | 0.6 | 0.544 | 0.544 | 0.615 | 0.585 | 0.51 | 0.417 | 0.458 | 0.303 | 0.837 | 0.672 | 0.586 | 0.708 | 0.892 | 0.699 | 0.891 | 0.826
PC-14 | 0.134 |  | 0.122 | 0.113 | 0.581 |  | 0.553 | 0.541 | 0.325 | 0.347 | 0.381 | 0.391 | 0.629 | 0.661 | 0.566 | 0.646 | 0.946 | 0.788 | 0.871 | 0.819
RERF-LC-KJ | 0.488 | 0.445 | 0.439 | 0.342 | 1.16 | 0.993 | 0.758 | 0.798 | 0.859 | 0.819 | 0.767 | 0.516 | 0.629 | 0.494 | 0.366 | 0.323 | 1.15 | 0.95 | 0.779 | 0.574
SK-LU-1 | 0.984 | 0.885 | 0.771 | 0.351 | 0.424 | 0.342 | 0.245 | 0.312 | 0.995 | 0.649 | 0.369 | 0.388 | 0.685 | 0.448 | 0.359 | 0.212 | 1.33 | 0.735 | 0.801 | 0.394
SW 1573 | 1.11 | 0.875 | 0.89 | 0.697 | 0.415 | 0.373 | 0.309 | 0.337 | 1.1 | 1.07 | 1.11 | 0.67 | 0.561 | 0.459 | 0.462 | 0.484 | 1.09 | 1.15 | 1.02 | 0.977
UMC-11 | 0.951 | 0.785 | 0.774 | 0.553 | 0.364 | 0.344 | 0.347 | 0.379 | 1.14 | 0.949 | 0.965 | 0.359 | 0.992 | 0.903 | 0.652 | 0.436 | 0.679 | 0.588 | 0.65 | 0.542
